Reference: patent US20240100193A1, “Self-complementary AAV vectors carrying dominant negative RhoA and methods of use to treat ocular diseases” (iView Therapeutics, Inc., priority 2022, published 2024)

Test system: ROCK
Assay: ROCK Activity Assay Kit on HTM cell lysates treated with ROCK activator or inhibitor
Type: biochemical, human
Details: for relative ROCK activity normalized to the no drug treated cell lysate: HTM cell lysate
Method: The ROCK Activity Assay Kit is an enzyme immunoassay developed for detection of the specific phosphorylation of MYPT1 at Thr696 by ROCK. A strip-well microtiter plate is precoated with a recombinant MYPT1. After incubating the substrate wells with ROCK samples, the phosphorylated MYPT1 is detected by an anti-phospho-MYPT1 (Thr696) antibody.
Human trabecular meshwork cells were seeded into 12-well plates at the density of 500,000 cells per well. 48 hours after seeding, cells were harvested with cell lysis buffer. Cell lysates were treated with ROCK activator or ROCK inhibitor before incubating with precoated strip-wells. The ROCK activity was then measured with the protocol of the kit. Three chemicals were used to activate ROCK: S1P (Sphingosine-1 phosphate at 1 μM), LPA (Oleoyl L-lysophosphatidic acid at 10 μM) and DMOG (Dimethyloxalylglycine at 0.5 mM). […] Data was presented as relative ROCK activity normalized to the no drug treated cell lysate.

## C[C@@H](N)[C@H]1CC[C@H](C(=O)Nc2ccncc2)CC1 [Y-27632]
Y-27632 at 50 μM
  relative ROCK activity normalized to the no drug treated cell lysate: decreased

## CCCCCCCCCCCCC/C=C/[C@@H](O)[C@@H](N)COP(=O)(O)O [S1P, Sphingosine-1 phosphate]
S1P at 1 μM
  relative ROCK activity normalized to the no drug treated cell lysate: increased

## COC(=O)CNC(=O)C(=O)OC [DMOG, Dimethyloxalylglycine]
DMOG at 0.5 mM
  relative ROCK activity normalized to the no drug treated cell lysate: increased

## Oleoyl L-lysophosphatidic acid [LPA]
LPA 10 μM compared with S1P 1 μM and DMOG 0.5 mM
  rank among the chemical ROCK activators: most potent activator
LPA at 10 μM
  relative ROCK activity normalized to the no drug treated cell lysate: increased
